Measured values published in article PMC3083410, “A Soluble Acetylcholinesterase Provides Chemical Defense against Xenobiotics in the Pinewood Nematode” (PLoS ONE, 2011).

Tests used:
BxACE-1 = biological target: T1, BxACE-1 (Bursaphelenchus xylophilus, UniProt D2JYW9); test: colorimetric acetylthiocholine/DTNB assay; assay type: biochemical; conditions: read-out: % inhibition at 2 mM
T1 construct: gene AChE1; recombinant, baculovirus system

BxACE-3 = biological target: T2, BxACE-3 (Bursaphelenchus xylophilus, UniProt D2JYX1); test: colorimetric acetylthiocholine/DTNB assay; assay type: biochemical; conditions: read-out: % inhibition at 2 mM
T2 construct: gene AChE3; recombinant, baculovirus system
T2 sequence (D2JYX1 entry or part of it): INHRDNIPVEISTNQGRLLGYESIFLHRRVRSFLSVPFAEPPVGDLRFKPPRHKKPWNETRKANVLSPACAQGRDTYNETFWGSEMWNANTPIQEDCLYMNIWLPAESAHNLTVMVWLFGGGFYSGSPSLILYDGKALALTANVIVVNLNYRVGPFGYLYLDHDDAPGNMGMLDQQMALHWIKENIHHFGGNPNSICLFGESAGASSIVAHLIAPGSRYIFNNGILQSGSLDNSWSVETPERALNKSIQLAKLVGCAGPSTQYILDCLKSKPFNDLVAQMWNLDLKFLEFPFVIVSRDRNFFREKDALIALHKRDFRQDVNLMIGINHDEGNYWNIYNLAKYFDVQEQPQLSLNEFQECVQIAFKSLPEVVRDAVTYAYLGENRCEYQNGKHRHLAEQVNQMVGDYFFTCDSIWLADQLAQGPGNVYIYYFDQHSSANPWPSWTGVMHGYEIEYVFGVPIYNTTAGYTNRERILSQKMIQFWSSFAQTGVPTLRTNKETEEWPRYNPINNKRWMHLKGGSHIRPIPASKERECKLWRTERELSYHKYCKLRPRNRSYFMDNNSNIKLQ

T1 sequence (D2JYW9 entry or part of it): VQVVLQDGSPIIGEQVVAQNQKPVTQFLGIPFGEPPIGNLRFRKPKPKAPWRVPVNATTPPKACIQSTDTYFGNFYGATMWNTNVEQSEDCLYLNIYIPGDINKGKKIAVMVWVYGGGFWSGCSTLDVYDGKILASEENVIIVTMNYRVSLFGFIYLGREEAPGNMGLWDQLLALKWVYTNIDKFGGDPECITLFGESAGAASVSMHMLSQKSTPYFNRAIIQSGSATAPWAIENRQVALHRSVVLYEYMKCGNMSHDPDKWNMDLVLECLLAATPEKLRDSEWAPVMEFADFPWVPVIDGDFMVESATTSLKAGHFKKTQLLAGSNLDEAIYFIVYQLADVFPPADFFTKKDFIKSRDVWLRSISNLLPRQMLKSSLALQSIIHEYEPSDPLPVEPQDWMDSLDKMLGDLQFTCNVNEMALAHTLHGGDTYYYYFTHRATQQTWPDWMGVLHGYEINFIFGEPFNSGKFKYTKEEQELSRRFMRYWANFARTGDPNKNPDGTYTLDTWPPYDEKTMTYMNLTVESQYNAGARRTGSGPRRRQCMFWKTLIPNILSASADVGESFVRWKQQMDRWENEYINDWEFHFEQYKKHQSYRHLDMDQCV

Compound | inhibition at 2000 µM (BxACE-1) [%] | inhibition at 2000 µM (BxACE-3) [%]
CC1=CCC2CC1C2(C)C (stereo not drawn) [α-pinene] | ~25 | ~10
C=C(C)C1CC=C(C)CC1 (stereo not drawn) [limonene] | – | ~10
